Reference: ChEMBL document CHEMBL5728881, “Substituted 6-azabenzimidazole compounds” (2021)

Molecular target: Mitogen-activated protein kinase kinase kinase kinase 1 (Homo sapiens, UniProt Q92918)
Experiment: TBHPK1 IC50 Assay: Ten nanoliters of test compounds dissolved in DMSO at various concentrations were dispensed into a 384-well ProxiPlate (PerkinElmer #6008289). Five microliters of a solution of recombinant HPK1 diluted in HPK1 kinase assay buffer (50 mM BES [N,N-Bis(2-hydroxyethyl)-2-aminoethanesulfonic acid], pH 7.0; 10 mM magnesium chloride; 0.01% Triton X-100; 1 mM dithiothreitol; 0.01% bovine serum albumin; 0.1 mM sodium orthovanadate) was added to the compound-containing plate and was incubated for 15 minutes at 25° C. Five microliters of a mixture of ATP (Sigma-Aldrich #A6559) and peptide substrate STK S1 (Cisbio #61ST1BLC) diluted in HPK1 kinase assay buffer was then added to start the reaction. Final concentrations were 0.15 nM for HPK1, 10 μM for ATP, and 1 μM for the STK S1 peptide substrate. The reaction mixture was incubated at 25° C. for 3 hours and was stopped with the addition of 10 μl of an EDTA (Ethylenediaminetetraacetic acid)-containing detection buffer (Cisbio #62SDBRDF) supplemented with Europium cryptate-labeled anti-phospho-serine/threonine antibodies (Cisbio #62ST1PEJ) and XL665-labeled streptavidin (Cisbio #610SAXLG). The mixture was incubated for 16 hours at room temperature and peptide phosphorylation was measured by time-resolved fluorescence energy transfer (665 nm/620 nm) on an Envision plate reader (PerkinElmer).

Sequence of Mitogen-activated protein kinase kinase kinase kinase 1 (Q92918 whole entry): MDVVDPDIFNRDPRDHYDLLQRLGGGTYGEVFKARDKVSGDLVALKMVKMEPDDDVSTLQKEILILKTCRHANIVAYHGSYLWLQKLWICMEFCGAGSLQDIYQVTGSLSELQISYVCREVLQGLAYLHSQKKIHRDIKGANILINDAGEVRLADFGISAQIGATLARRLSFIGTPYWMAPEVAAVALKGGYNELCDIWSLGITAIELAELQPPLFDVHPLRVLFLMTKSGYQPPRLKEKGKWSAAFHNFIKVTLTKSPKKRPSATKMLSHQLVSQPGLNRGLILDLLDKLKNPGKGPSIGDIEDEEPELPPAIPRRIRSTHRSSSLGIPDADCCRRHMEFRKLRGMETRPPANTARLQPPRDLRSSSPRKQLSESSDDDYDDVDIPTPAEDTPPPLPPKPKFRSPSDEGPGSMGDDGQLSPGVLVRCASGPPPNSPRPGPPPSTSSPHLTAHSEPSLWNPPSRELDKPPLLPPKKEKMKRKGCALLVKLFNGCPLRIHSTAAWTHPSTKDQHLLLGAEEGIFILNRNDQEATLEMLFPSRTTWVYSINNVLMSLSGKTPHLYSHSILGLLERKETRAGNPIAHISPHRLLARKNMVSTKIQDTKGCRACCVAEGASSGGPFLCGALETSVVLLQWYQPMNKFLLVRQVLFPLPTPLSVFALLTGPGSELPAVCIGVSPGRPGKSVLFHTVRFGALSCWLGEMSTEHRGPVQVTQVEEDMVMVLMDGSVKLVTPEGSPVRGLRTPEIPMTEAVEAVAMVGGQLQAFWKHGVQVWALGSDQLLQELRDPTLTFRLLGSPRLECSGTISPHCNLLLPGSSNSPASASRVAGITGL

Row | Compound | IC50 [nM]
1 | CC(C)n1cnc2cc(-c3cnc4c(c3)N([C@H]3C[C@](C)(N5CCC6CC6C5)C3)C(=O)C4(C)C)nc(Nc3cc(C(=O)NC4(CF)CC4)c(Cl)c(F)c3F)c21 (some centres not stated) | 0.09
2 | CNC(=O)c1cc(Nc2nc(-c3ccc4c(c3)N([C@H]3C[C@@H](N5CC[C@H](C(F)F)C5)C3)C(=O)C4(C)C)cc3ncn(C(C)C)c23)ccc1C | 0.2
